Test results: publication PMC6412401 (Molecules, 2019)
Entries after “also recorded” stand apart in the source; their conditions may differ.

Experiments:
Format in all cases: biochemical
[1] = molecular target: T1, recombinant human MAO-B (Homo sapiens, UniProt P27338); assay: Time-dependent assay for enzyme inhibition; settings: 0.500 μM; pre-incubation 0–15 min
T1 construct: purchased BD Biosciences (Bedford, MA, USA)
T1 sequence (P27338 1-520): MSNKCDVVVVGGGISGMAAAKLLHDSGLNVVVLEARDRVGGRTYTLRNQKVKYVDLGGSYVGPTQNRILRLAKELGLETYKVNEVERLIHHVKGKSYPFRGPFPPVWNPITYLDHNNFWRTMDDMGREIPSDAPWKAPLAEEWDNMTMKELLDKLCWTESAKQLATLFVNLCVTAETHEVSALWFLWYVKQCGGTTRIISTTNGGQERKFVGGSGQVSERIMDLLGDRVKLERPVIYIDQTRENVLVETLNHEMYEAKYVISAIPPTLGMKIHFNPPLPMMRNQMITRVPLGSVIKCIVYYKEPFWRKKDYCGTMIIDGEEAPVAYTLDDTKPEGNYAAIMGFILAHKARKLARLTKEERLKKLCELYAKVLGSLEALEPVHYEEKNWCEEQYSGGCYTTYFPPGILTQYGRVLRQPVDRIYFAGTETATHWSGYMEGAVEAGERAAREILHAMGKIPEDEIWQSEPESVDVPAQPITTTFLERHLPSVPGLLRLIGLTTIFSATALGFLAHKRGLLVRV
Protocol: The control without inhibitors was also run simultaneously. The activity of the enzyme was determined, as described above, and the percentage of enzyme activity remaining was plotted against the pre-incubation time to determine the time-dependence of inhibition.
The controls without inhibitors were also simultaneously run. The activities of the enzymes were determined, as described above, and the percentage of enzyme activity remaining was plotted against the pre-incubation time to determine the time-dependence of inhibition.

[2] = molecular target: T1, recombinant human MAO-B; assay: Enzyme kinetics and mechanism studies (Lineweaver-Burk); settings: for Type of Inhibition Monoamine Oxidase-B: mechanism / reversibility
Protocol: The assays were run at varying concentrations of the substrate and fixed concentrations of the inhibitor. The Ki (i.e., inhibition/binding affinity) values were computed with double reciprocal Lineweaver–Burk plots.
The controls without inhibitor were also simultaneously run. The results were analyzed by standard double reciprocal Line–Weaver Burk plots for computing Km and Vmax values, which were further analyzed to determine Ki values.

[3] = molecular target: T1, recombinant human MAO-B; assay: Reversibility of binding, enzyme-inhibitor complex equilibrium dialysis
Protocol: The activity of the enzyme was analyzed before and after the dialysis (Figure 4).
The inhibitors bind with the target enzyme through the formation of an enzyme-inhibitor complex. The formation of the enzyme-inhibitor complex may be accelerated in the presence of the high concentration of the inhibitor. […] After 20 min incubation at 37 °C, the reaction was stopped by chilling in an ice bath. All of the samples were dialyzed against potassium phosphate buffer (25 mM; pH 7.4) at 4 °C for 14–18 h (three buffer changes). Control enzyme (without inhibitor) was also run through the same procedure and the activity of the enzyme was determined before and after the dialysis.

[4] = molecular target: T1, recombinant human MAO-B; assay: MAO-B inhibition assay (kynuramine oxidative deamination); settings: for SI MAO-A/-B: Selectivity Index = IC50 MAO-A/IC50 MAO-B; for IC50: kynuramine 50 μM, mean ± S.D. of at least triplicate observations
Protocol: (§1) To investigate the effect of the isolated constituents from T. diffusa on recombinant human MAO-A and MAO-B, the kynuramine oxidative deamination assay was performed in 384-well plates, as previously reported, with minor modifications. A single fixed concentration of kynuramine substrate and varying concentrations of inhibitor were used to test enzyme inhibition and determine the IC50 values. Kynuramine concentrations for MAO-A and MAO-B were 80 μM and 50 μM, respectively. These concentrations of kynuramine were twice the apparent KM value for substrate binding. The concentrations that were tested for pure constituents were from 0.01 to 100 μM, for MAO-A and MAO-B inhibition assays. Reactions were performed in a clear 384-well microplate (50 μL) with 0.1 M potassium phosphate buffer, pH 7.4. The inhibitors and compounds were dissolved in DMSO, diluted in the buffer solution, and pre-incubated at 37 °C for 10 min (no more than 1.0% DMSO final concentration). […] The enzyme product 4-hydroxyquinoline formation was recorded fluorometrically using a SpectraMax M5 fluorescence plate reader (Molecular Devices, Sunnyvale, CA, USA) with an excitation (320 nm) and emission (380 nm) wavelength, using the SoftMaxPro 6.0 program. The inhibition effects of enzyme activity were calculated as a percent of product formation when compared to the corresponding control (enzyme-substrate reaction) without inhibitors. Controls, including samples in which the enzyme or the substrate was added after stopping the reactions, were simultaneously checked to determine the interference of inherent fluorescence of the test compounds with the measurements. IC50 values for MAO-A and MAO-B inhibition were calculated from the concentration dependent inhibition curves using XLfit, a Microsoft Excel-based plug-in which performs Regression, curve fitting and statistical analysis (IDBS, Bridgewater, NJ, USA).
(§2) The dose-response curves were generated using Microsoft® Excel and the IC50 values were analyzed using XLfit software.

[5] = molecular target: T2, recombinant human MAO-A (Homo sapiens, UniProt P21397); assay: MAO-A inhibition assay (kynuramine oxidative deamination); settings: kynuramine 80 μM; mean ± S.D. of at least triplicate observations
T2 construct: purchased BD Biosciences (Bedford, MA, USA)
T2 sequence (P21397 1-527): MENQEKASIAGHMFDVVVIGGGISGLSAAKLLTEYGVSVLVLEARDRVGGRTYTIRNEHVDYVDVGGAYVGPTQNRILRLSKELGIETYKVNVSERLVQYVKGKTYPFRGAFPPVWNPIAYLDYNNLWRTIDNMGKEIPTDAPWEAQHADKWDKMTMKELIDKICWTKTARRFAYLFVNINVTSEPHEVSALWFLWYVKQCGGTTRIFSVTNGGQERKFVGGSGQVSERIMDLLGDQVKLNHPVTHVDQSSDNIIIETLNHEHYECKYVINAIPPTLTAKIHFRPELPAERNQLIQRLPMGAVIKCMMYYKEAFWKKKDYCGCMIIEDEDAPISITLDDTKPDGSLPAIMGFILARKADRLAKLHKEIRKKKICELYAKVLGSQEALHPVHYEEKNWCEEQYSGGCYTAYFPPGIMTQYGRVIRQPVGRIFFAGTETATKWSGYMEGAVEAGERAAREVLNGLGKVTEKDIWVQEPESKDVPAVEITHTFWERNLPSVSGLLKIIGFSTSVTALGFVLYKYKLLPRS
Protocol: as §1, §2

Row | Structure (SMILES) | Type of Inhibition Monoamine Oxidase-B [2] | Type of Inhibition Monoamine Oxidase-B ([2]; listed as acacetin 7-methyl ether) | Ki ([2]; varying kynuramine, mean ± S.D. of triplicate experiments, read-out: Ki Monoamine Oxidase-B) [µM] | inhibition of MAO-B activity after incubation, before dialysis ([3]; 1.0 and 2.0 μM, 20 min incubation) [%] | activity of the enzyme recovered after equilibrium dialysis ([3]; 1.0 and 2.0 μM, dialyzed overnight) | reversibility of binding to MAO-B ([3]; equilibrium dialysis) | selectivity for MAO-B over MAO-A [4] [fold] | SI MAO-A/-B [4] | plateau of concentration-dependent inhibition of MAO-B ([4]; higher concentrations, ~20% activity remaining) | IC50 [4] [µM] | IC50 [5] [µM] | time dependence of binding/inhibition of MAO-B [1]
1 | O=C(/C=C/c1ccc(O)cc1)OC[C@H]1O[C@@H](Oc2cc(O)c3c(=O)cc(-c4ccc(O)cc4)oc3c2)[C@H](O)[C@@H](O)[C@@H]1O [Apigenin-7-O-β-D-(6-O-p-coumaroyl) glucoside] |  |  |  |  |  |  |  | 1.023 |  | 22 ± 1.76 | 22.5 ± 4.44 | 
2 | C[C@@H]1O[C@@H](O[C@@H]2[C@@H](O)[C@H](O)[C@@H](CO)O[C@H]2c2c(O)cc(O)c3c(=O)cc(-c4ccc(O)cc4)oc23)[C@H](O)[C@H](O)[C@H]1O [Rhamnosylvitexin] |  |  |  |  |  |  |  | 1.557 |  | 26.3 ± 0.277 | 40.9 ± 6.81 | 
3 | COc1cc(-c2cc(=O)c3c(O)cc(O[C@@H]4O[C@H](CO)[C@@H](O)[C@H](O)[C@H]4O)cc3o2)cc(OC)c1O [Tricin-7-glucoside] |  |  |  |  |  |  |  | 1.854 |  | 27.4 ± 0.819 | 50.9 ± 0.506 | 
4 | COc1cc(O)c2c(=O)cc(-c3ccc(O)c(OC)c3)oc2c1 [Vetulin] |  |  |  |  |  |  |  | 42.056 |  | 0.447 ± 0.01 | 18.8 ± 0.291 | 

Further lines, with some results ahead:

Row | Type of Inhibition Monoamine Oxidase-B [2] | Type of Inhibition Monoamine Oxidase-B ([2]; listed as acacetin 7-methyl ether) | Ki ([2]; varying kynuramine, mean ± S.D. of triplicate experiments, read-out: Ki Monoamine Oxidase-B) [µM] | inhibition of MAO-B activity after incubation, before dialysis ([3]; 1.0 and 2.0 μM, 20 min incubation) [%] | activity of the enzyme recovered after equilibrium dialysis ([3]; 1.0 and 2.0 μM, dialyzed overnight) | reversibility of binding to MAO-B ([3]; equilibrium dialysis) | selectivity for MAO-B over MAO-A [4] [fold] | SI MAO-A/-B [4] | plateau of concentration-dependent inhibition of MAO-B ([4]; higher concentrations, ~20% activity remaining) | IC50 [4] [µM] | IC50 [5] [µM] | Structure (SMILES) | time dependence of binding/inhibition of MAO-B [1]
5 | Competitive/Partially Reversible | reversible competitive inhibitor | 0.045 ± 0.003 | > 60 | ~ 80% | partially reversible | > 500 | >505.051 | ~ 80 % inhibition | 0.198 ± 0.001 | > 100 | COc1ccc(-c2cc(=O)c3c(O)cc(OC)cc3o2)cc1 [Acacetin 7-methyl ether, 5-hydroxy-4′, 7-dimethoxyflavone] | time-independent; also recorded: not dependent on the pre-incubation time
6 | Competitive/Reversible |  |  |  |  |  |  |  |  |  | 0.115 ± 0.004 | COc1ccc(-c2cc(=O)c3c(O)cc(O)cc3o2)cc1 [Acacetin] | 
